Experimental data from patent US20060223782A1, “2-Methylene-19-nor-(23S)-25-dehydro-1alpha-hydroxyvitamin D3-26,23-lactone and 2-methylene-19-nor-(23R)-25-dehydro-1alpha-hydroxyvitamin D3-26,23-lactone” (Wisconsin Alumni Research Foundation, priority 2005, published 2006).

How the values were obtained:
[1] = test system: Sprague-Dawley rats; assay: Intestinal calcium transport (everted gut sac method); assay type: in vivo, rat; conditions: four consecutive ip doses, FIG. 7
Protocol: (§1) Male, weanling Sprague-Dawley rats were placed on Diet 11 (Suda et al. J. Nutr. 100:1049, 1970) (0.47% Ca) diet+vitamins AEK for one week followed by Diet 11 (0.02% Ca)+AEK for 3 weeks. The rats were then switched to a diet containing 0.47% Ca for one week followed by two weeks on a diet containing 0.02% Ca. Dose administration began during the last week on 0.02% calcium diet. Four consecutive ip doses were given approximately 24 hours apart. Twenty-four hours after the last dose, blood was collected from the severed neck and the concentration of serum calcium determined as a measure of bone calcium mobilization. The first 10 cm of the intestine was also collected for intestinal calcium transport analysis using the everted gut sac method. Antagonism was tested by administering a combination of 1,25(OH)2D3 and the compound to the animal simultaneously.

[2] = test system: Sprague-Dawley rats; assay: Bone calcium mobilization (serum calcium); assay type: in vivo, rat; conditions: four consecutive ip doses, even at 2,340 pmol/day, FIG. 6
Protocol: as §1

[3] = target: T1, full-length recombinant rat vitamin D receptor (Rattus norvegicus, UniProt P13053); assay: Vitamin D receptor competitive binding with [3H]-1,25-(OH)2-D3; conditions: competition with [3H]-1,25-(OH)2-D3; FIG. 1
T1 construct: Full-length recombinant rat vitamin D receptor was expressed in E. coli; histidine tag (C); made in house; host or cells: E. coli BL21(DE3) Codon Plus RIL
T1 sequence (P13053 1-423): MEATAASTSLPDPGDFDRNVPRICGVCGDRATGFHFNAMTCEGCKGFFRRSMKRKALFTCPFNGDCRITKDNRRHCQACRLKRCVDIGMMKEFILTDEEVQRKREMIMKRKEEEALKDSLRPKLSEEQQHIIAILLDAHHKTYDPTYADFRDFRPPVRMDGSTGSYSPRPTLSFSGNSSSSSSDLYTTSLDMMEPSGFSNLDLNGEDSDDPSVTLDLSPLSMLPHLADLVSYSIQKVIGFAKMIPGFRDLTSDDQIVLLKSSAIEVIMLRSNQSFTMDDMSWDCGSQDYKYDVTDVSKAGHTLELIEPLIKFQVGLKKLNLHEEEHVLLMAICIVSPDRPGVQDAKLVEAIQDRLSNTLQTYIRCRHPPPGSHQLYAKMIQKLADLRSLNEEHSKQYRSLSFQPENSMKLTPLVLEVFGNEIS
Protocol: The first system was a nickel affinity resin that utilizes the C-terminal histidine tag on this protein. The protein that was eluted from this resin was further purified using ion exchange chromatography (S-Sepharose Fast Flow). Aliquots of the purified protein were quick frozen in liquid nitrogen and stored at −80° C. until use. For use in binding assays, the protein was diluted in TEDK50 (50 mM Tris, 1.5 mM EDTA, pH 7.4, 5 mM DTT, 150 mM KCl) with 0.1% Chaps detergent. The receptor protein and ligand concentration was optimized such that no more than 20% of the added radiolabeled ligand was bound to the receptor.
Radiolabeled and unlabeled ligands were added to 100 mcl of the diluted protein at a final ethanol concentration of ≦10%, mixed and incubated overnight on ice to reach binding equilibrium. The following day, 100 mcl of hydroxylapatite slurry (50%) was added to each tube and mixed at 10-minute intervals for 30 minutes. The hydroxylapaptite was collected by centrifugation and then washed three times with Tris-EDTA buffer (50 mM Tris, 1.5 mM EDTA, pH 7.4) containing 0.5% Titron X-100. After the final wash, the pellets were transferred to scintillation vials containing 4 mL of Biosafe II scintillation cocktail, mixed and placed in a scintillation counter. Total binding was determined from the tubes containing only radiolabeled ligand.

[4] = test system: 24-hydroxylase (24OHase) gene promoter in ROS 17/2.8 (bone) cells; assay: In vitro transcription assay, antagonism of 1,25(OH)2D3 (24OHase promoter-luciferase); assay type: cell-based; conditions: combination with 1,25(OH)2D3 in the same well; FIGS. 3-5
Protocol: Transcription activity was measured in ROS 17/2.8 (bone) cells that were stably transfected with a 24-hydroxylase (24OHase) gene promoter upstream of a luciferase reporter gene (Arbour et al., 1998). Cells were given a range of doses. Sixteen hours after dosing the cells were harvested and luciferase activities were measured using a luminometer. RLU=relative luciferase units.
Antagonism was tested by adding a combination of 1,25(OH)2D3 and the compound in the same well keeping the final ethanol concentration the same.

[5] = test system: HL-60 cells; assay: HL-60 differentiation (nitro blue tetrazolium reduction); assay type: cell-based, human; conditions: FIG. 2
Protocol: The study drugs were dissolved in ethanol and the concentrations determined using UV spectrophotometry. Serial dilutions were prepared so that a range of drug concentrations could be tested without changing the final concentration of ethanol (≦0.2%) present in the cell cultures.
Human promyelocyiic leukemia (HL60) cells were grown in RPMI-1640 medium containing 10% fetal bovine serum. The cells were incubated at 37° C. in the presence of 5% CO2.
HL60 cells were plated at 1.2×10^5 cells/mL. Eighteen hours after plating, cells in duplicate were treated with drug. Four days later, the cells were harvested and a nitro blue tetrazolium reduction assay was performed (Collins et al., 1979; J. Exp. Med. 149:969-974). The percentage of differentiated cells was determined by counting a total of 200 cells and recording the number that contained intracellular black-blue formazan deposits. Verification of differentiation to monocytic cells was determined by measuring phagocytic activity (data not shown).

binding to the vitamin D receptor relative to 1α,25-dihydroxyvitamin D3 [3] | Compound | intestinal calcium transport [1] | calcemic activity measured by bone calcium mobilization [2] | antagonistic activity when administered along with 1α,25-dihydroxyvitamin D3 (transcription) [4] | activity in inducing differentiation of HL-60 cells relative to 1,25-(OH)2D3 [5]
less active | C=C1C[C@H](C[C@@H](C)C2CC[C@H]3/C(=C/C=C4C[C@@H](O)C(=C)[C@H](O)C4)CCC[C@]23C)OC1=O (stereo partly drawn) [HLV, 2-methylene-19-nor-(23S)-25-dehydro-1α-hydroxyvitamin D3-26,23-lactone] | retain the ability to elevate intestinal calcium transport | no calcemic activity | antagonistic activity to an even greater extent | less activity than 1,25-(OH)2D3
less active | C=C1C[C@@H](C[C@@H](C)C2CC[C@H]3/C(=C/C=C4C[C@@H](O)C(=C)[C@H](O)C4)CCC[C@]23C)OC1=O (stereo partly drawn) [GC-3, 2-methylene-19-nor-(23R)-25-dehydro-1α-hydroxyvitamin D3-26,23-lactone] | retain the ability to elevate intestinal calcium transport | no calcemic activity | shows antagonistic activity | less activity than 1,25-(OH)2D3
